Measured values as given in US7465725B2, “Pyrimidine compounds” (Synta Pharmaceuticals Corp., priority 2001, dated 2008).

Legend:
[1] = test system: CD4+ CD45Rbhigh T cell-reconstituted colitis; assay: CD4+ CD45Rbhigh T cell-reconstituted SCID colitis model mice; type: in vivo, C.B-17 SCID mice
Protocol: Treatment of Crohn's disease in CD4^+ CD45Rb^high T cell-reconstituted SCID colitis model mice: Spleen cells were prepared from normal female BALB/c mice. For cell purification, the following anti-mouse antibodies were used to label non-CD4^+ T cells: B220 (RA3-6B2), CD11b (M1/70), and CD8α (53-6.72). All antibodies were obtained from BioSource (Camarillo, Calif.). M450 anti-rat IgG-coated magnetic beads (Dynal, Oslo, Norway) were used to bind the antibodies and negative selection was accomplished using an MPC-1 magnetic concentrator. The enriched CD4^+ cells were then labeled for cell sorting with FITC-conjugated CD45RB (16A, Pharmingen, San Diego, Calif.) and PE-conjugated CD4 (CT-CD4, Caltag, Burlingame, Calif.). CD4^+ CD45Rb^high cells were operationally defined as the upper 40% of CD45Rb-staining CD4^+ cells and sorted under sterile conditions by flow cytometry. Harvested cells were resuspended at 4×10^6/mL in PBS and injected 100 μL intraperitoneally into female C.B-17 SCID mice. Pyrimidine compounds of this invention (e.g., Compound 12) and/or vehicle was orally administered once a day, 5 days per week, starting the day following the transfer. The transplanted SCID mice were weighed weekly and their clinical condition was monitored. Colon tissue samples were fixed in 10% buffered formalin and embedded in paraffin. Sections (4 μm) collected from ascending, transverse, and descending colon were cut and stained with hematoxylin and eosin. The severity of colitis was determined based on histological examination of the distal colon sections, whereby the extent of colonic inflammation was graded on a scale of 0-3 in each of four criteria: crypt elongation, cell infiltration, depletion of goblet cells, and the number of crypt abscesses. LP lymphocytes were isolated from freshly obtained colonic specimens. After removal of […] patches, the colon was washed in Ca/Mg-free HBSS, cut into 0.5 cm pieces and incubated twice in HBSS containing EDTA (0.75 mM), DTT (1 mM), and antibiotics (amphotericin 2.5 μg/mL, gentamicin 50 μg/mL from Sigma) at 37° C. for 15 min. Next, the tissue was-digested further in RPMI containing 0.5 mg/mL collagenase D, 0.01 mg/mL DNase I (Boehringer Manheim), and antibiotics at 37° C. LP cells were then layered on a 40-100% Percoll gradient (Pharmacia, Uppsala, Sweden), and lymphocyte-enriched populations were isolated from the cells at the 40-100% interface. To measure cytokine production, 48-well plates were coated with 10 μg/mL murine anti-CD3ε antibody (145-2C11) in carbonate buffer (PH 9.6) overnight at 4° C. […] Murine IFNγ was measured using an ELISA kit from Endogen (Cambridge, Mass.), according to the manufacturer's instructions.

[2] = test system: DNBS-induced distal colitis; assay: Dinitrobenzene sulfonic acid-induced inflammatory bowel syndrome model rats; type: in vivo, Wistar derived rats; conditions: oral, 24 and 2 h before DNBS, then daily for 5 days; relative to vehicle+DNBS net increase
Protocol: Treatment of Crohn's disease in dinitrobenzene suifonic acid-induced inflammatory bowel syndrome model rats: Wistar derived male or female rats weighing 200±20 g and fasted for 24 hours were used. Distal colitis was induced by intra-colonic instillation of 2,4-dinitrobenzene sulfonic acid (DNBS, 25 mg in 0.5 mL ethanol 30%) after which air (2 mL) was gently injected through the cannula to ensure that the solution remained in the colon. A test compound and/or vehicle was administered orally 24 and 2 hours before DNBS instillation and then daily for 5 days. One control group was similarly treated with vehicle alone while the other is treated with vehicle plus DNBS. The animals were sacrificed 24 hours after the final dose of test compound administration and each colon was removed and weighed. Colon-to-body weight ratio was then calculated for each animal according to the formula: Colon (g)/BW×100. The “Net” increase in ratio of Vehicle-control+DNBS group relative to Vehicle-control group was used as a base for comparison with test substance treated groups and expressed as “% Deduction.” Pyriridine compounds of this invention (e.g., Compound 12) reproducibly had about 30% deduction. A 30% or more reduction in colon-to-body weight ratio, relative to the vehicle treated eontrol group, was considered significant.

[3] = test system: adjuvant arthritis; assay: Treatment of adjuvant arthritis in rats; type: in vivo, female Lewis rats; conditions: oral, once a day for 12 days, dose-dependent

Cc1cccc(C=NNc2cc(N3CCOCC3)nc(OCCc3ccccn3)n2)c1 [Compound 12, N-(3-methyl-benzylidene)-N′-[6-morpholin-4-yl-2-(2-pyridin-2-yl-ethoxy)-pyrimidin-4-yl]-hydrazine]
IFNγ production by LP cells ([1]; ex vivo LP cells from treated mice, anti-CD3 and anti-CD28 antibody, 48 h, ELISA): greatly diminished the production | colonic inflammation (histological analysis), suppressive effect ([1]; oral, dose of 10 mg/kg): substantial reduction | colonic inflammation (histological analysis) ([1]; oral, once a day, 5 days per week, versus vehicle control): reduced colonic inflammation | colon-to-body weight ratio ([1]; oral, consistent with histological score): attenuation | % Deduction (colon-to-body weight ratio) [2]: about 30% | development of polyarthritis [3]: delayed the development of polyarthritis | arthritic score ([3]; repeated four times): reduced the arthritic score
